Measurements from US10800816B2 (Baxalta GmbH, priority 2012, dated 2020).
Like-named read-outs stand apart in the source and are kept apart here. Each block holds one substance with its values, some of them ahead of it.

Assays:
[1] = tested on: Tissue Factor Pathway Inhibitor (TFPI); assay: IC50 ELISA | Mean IC50 [nM]
Source text: Table printed on a drawing sheet, FIGURE 78V
(§1) Head of the field: IC50 ELISA | Mean IC50 [nM]

[2] = tested on: Tissue Factor Pathway Inhibitor (TFPI); assay: IC50 ELISA | Mean IC50 [nM]; remark: listed apart in the source
[3] = tested on: Tissue Factor Pathway Inhibitor (TFPI); assay: IC50 ELISA | Mean IC50 [nM]; remark: listed apart in the source
[4] = tested on: Tissue Factor Pathway Inhibitor (TFPI); assay: IC50 ELISA | IC50 [nM]
Source text: Table printed on a drawing sheet, FIGURE 78R
(§2) Head of the field: IC50 ELISA | IC50 [nM]

[5] = tested on: TFPI; settings: read-out: IC50 Mean
[6] = tested on: Tissue Factor Pathway Inhibitor (TFPI); assay: IC50 ELISA | Mean IC50 [nM]; remark: listed apart in the source
[7] = tested on: TFPI; assay: Extrinsic Tenase Inhibition by TFPI | % Inhibit (2.5µM)
[8] = tested on: TFPI; assay: Progress Curves of Inhibition of FXa | % Inhibit (2.5µM)
[9] = tested on: Tissue Factor Pathway Inhibitor (TFPI); assay: IC50 ELISA | Mean IC50 [nM]; remark: listed apart in the source
[10] = tested on: TFPI; assay: IC50 ELISA | Mean IC50 [nM]
[11] = tested on: Tissue Factor Pathway Inhibitor (TFPI); assay: IC50 ELISA | Mean IC50 [nM]; remark: listed apart in the source
[12] = tested on: TFPI; assay: IC50 ELISA | Mean IC50 [nM]; remark: listed apart in the source
[13] = tested on: TFPI; assay: Progress Curves of Inhibition of FXa | % Inhibit (2.5µM); remark: listed apart in the source
[14] = tested on: Tissue Factor Pathway Inhibitor (TFPI); assay: IC50 ELISA | Mean IC50 [nM]; remark: listed apart in the source
Source text: Table printed on a drawing sheet, FIGURE 78M
as §1

[15] = tested on: Tissue Factor Pathway Inhibitor (TFPI); assay: IC50 ELISA | Mean IC50 [nM]; remark: listed apart in the source
[16] = tested on: TFPI; assay: Progress Curves of Inhibition of FXa | % Inhibit (2.5µM); remark: listed apart in the source
Description: Head of the field: Progress Curves of Inhibition of FXa | % Inhibit (2.5µM)
“*” denotes negative controls.

[17] = tested on: Tissue Factor Pathway Inhibitor (TFPI); assay: IC50 ELISA | IC50 [nM]; remark: listed apart in the source
Source text: Table printed on a drawing sheet, FIGURE 78E
as §2

[18] = tested on: FIX knock-out mice; assay: Tail-tip bleed model in FIX knock-out mice; type: in vivo, mouse
Description: JBT2329 also was tested in a FIX knock-out tail-tip bleed mouse model, which is a clinically-relevant model for hemophilia B human patients. The methodology was substantially similar to that described above with respect to the FVIII knock-out model. Instead of ADVATE, a recombinant FIX (rFIX) served as a reference. Median total blood loss in buffer-treated animals was 935 mg. Median total blood loss in animals treated with a murine anti-TFPI antibody (maTFPI) was 774 mg. Median total blood loss was reduced further when the animals received combined treatment of maTFPI and rFIX.

Substance: Ac-FQSKpNVH-Tle-D-hcy-YF-Hcy-RL-Aib-AKL-NH2 [JBT00002497]
- IC50 [1]: 7.16 nM

Substance: Ac-FQSKGNVFVTGYFDRLRAKL-NH2 [JBT0775 | 69]
- IC50 [5]: 22 nM

Substance: Ac-SGGRKHKHFLRSNGKPSRALSS-NH2 (SEQ [JBT0424]
- Extrinsic Tenase Inhibition by TFPI | % Inhibit ([…]) [7]: 0%
- Progress Curves of Inhibition of FXa | % Inhibit ([…]) [8]: 1%

Substance: Ac-FQSK-nma-NVHVDGYFERL-Aib-AKL-NH2 [JBT00002280]
- IC50 [9]: 4.6 nM

Substance: Ac-FQSKGNVFVDGYFERL-Aib-AKLC(PEG)-NH2 [JBT00001855]
- IC50 [10]: 121 nM

Substance: Ac-KWFCGMRDMKGTMSCVWVKFRYDTS- [JBT0324]
- Progress Curves of Inhibition of FXa | % Inhibit ([…]) [13]: 0%

Substance: Ac- KKVGSVTRWSMYGPIFIKFTWTLEQPVGWDH KK-NH2 (SEQ ID NO: 3056) (Ac-KKVGSVTRWSMYGPIFIKFTWTLEQPVGWDHKK-NH2) [JBT0176*]
- Progress Curves of Inhibition of FXa | % Inhibit ([…]) [16]: 0%

Substance: Ac-FQSKKNVFV-NH2 [JBT00002258]
- IC50 [17]: > 5000 nM

Substance: rFIX: a recombinant FIX
- Median total blood loss ([18]; 10 IU/kg rFIX alone): 888 mg
- Median total blood loss ([18]; 25 IU/kg rFIX alone): 774 mg

Next, values leading:

- IC50 [2]: 6.31 nM
Substance: Ac-FQSKp-C(Acm)-VH-Tle-D[cY-Bta--Hcy-]RL-Aib-AKL- NH2 [JBT00002501]

- IC50 [3]: 7.9 nM
Substance: Ac-FQ-Ede(O)-KpNVH-Tle-DaYFERL-Aib-AKL-NH2 [JBT00002453]

- IC50 [4]: > 500 nM
Substance: Ac-FqVH-Tle-DGYFERL-Aib-AKL-NH2 [JBT00002429]

- IC50 [6]: 6.6 nM
Substance: Ac-FQSKpNVHVDGYFERL-Aib-AKLC(ME-50MA)-NH2 [JBT00002325]

- IC50 [11]: 2.7 nM
Substance: Ac-FQSKpNVHVDGYFERL-Egz-AKL-NH2 [JBT00002302]

- IC50 [12]: 1.03 nM
Substance: (Ac-FQSKpNVHVDGYFERL-Aib-AKLC-NH2)2-M2PEG2000 [JBT00002523]

- IC50 [14]: 20.8 nM
Substance: Ac-FQSKpNVHVDGYFERL-Aib-AKLC(ME-400MA)-NH2 [JBT00002329]

- IC50 [15]: 15.4 nM
Substance: Ac-FQSKpNVHVDGYFERL-Aib-AKLK(AOA-40kDa PSA)- NH2 [JBT00002430]

- IC50 [2]: 3.89 nM
Substance: Ac-FQSKp-C(NEM)-VH-Tle-DaY-Bta-ERL-Aib-AKL-NH2 [JBT00002502]
